Source: ChEMBL document CHEMBL4706748, “Targeting KRAS Mutant Cancers via Combination Treatment: Discovery of a Pyridopyridazinone pan-RAF Kinase Inhibitor” (ACS Med Chem Lett, 2021)
The source made the active and inactive calls. The rule behind the calls is not given here.

Experiments:
[1] = biological target: Serine/threonine-protein kinase B-raf (Homo sapiens, UniProt P15056); assay: Inhibition of BRAF (unknown origin) (416 to 766) assessed as using inactive phosphorylated MAP2K1 substrate preincubated for 30 mins measured after 90 mins by DELFIA assay
[2] = biological target: RAF proto-oncogene serine/threonine-protein kinase (Homo sapiens, UniProt P04049, Y340D/Y341D); assay: Inhibition of CRAF Y340D/Y341D mutant (unknown origin) assessed as using inactive phosphorylated MAP2K1 substrate preincubated for 30 mins measured after 90 mins by DELFIA assay
A549 [3] = assay: Antiproliferative activity against human A549 cells harboring KRAS mutant assessed as reduction in cell viability; format: functional, cell-based
A549 [4] = assay: Synergistic antiproliferative activity against human A549 cells harboring KRAS mutant assessed as reduction in cell viability in presence of 100 nM cobi-metinib; format: functional, cell-based
[5] = Apparent permeability across apical to basolateral side in MDCK cells; format: ADME, cell-based, Canis lupus familiaris; settings: dog
[6] = Efflux ratio of permeability across basolateral to apical side over apical to basolateral side in MDCK cells; format: ADME, cell-based, Canis lupus familiaris; settings: dog
A-375 = assay: Antiproliferative activity against human A375 cells harboring BRAF mutant assessed as reduction in cell viability; format: functional, cell-based
Mus musculus [7] = assay: In vivo inhibition of RAF in human HCT116 cells xenografted in NCR mouse assessed as inhibition of DUSP6 gene expression at 5 mg/kg, po qd for 4 days measured upto 24 hrs of last dose; format: functional, organism-based; settings: time 4.0 day
Mus musculus [8] = assay: In vivo inhibition of RAF in human HCT116 cells xenografted in NCR mouse assessed as inhibition of SPRY4 gene expression at 5 mg/kg, po qd for 4 days measured upto 24 hrs of last dose; format: functional, organism-based; settings: time 4.0 day
[9] = Clearance in mouse at 1 mg/kg, iv; format: ADME, organism-based; settings: in vivo
[10] = Volume of distribution in mouse at 1 mg/kg, iv; format: ADME, organism-based; settings: in vivo
[11] = Oral bioavailability in mouse at 5 mg/kg; format: ADME, organism-based; settings: in vivo
[12] = Half life in mouse; format: ADME, organism-based; settings: in vivo
Mus musculus [13] = assay: In vivo inhibition of RAF in human HCT116 cells xenografted in NCR mouse assessed as inhibition of DUSP6 gene expression at 15 mg/kg, po qd for 4 days measured upto 24 hrs of last dose; format: functional, organism-based; settings: time 4.0 day
Mus musculus [14] = assay: In vivo inhibition of RAF in human HCT116 cells xenografted in NCR mouse assessed as inhibition of SPRY4 gene expression at 15 mg/kg, po qd for 4 days measured upto 24 hrs of last dose; format: functional, organism-based; settings: time 4.0 day
Mus musculus [15] = assay: In vivo inhibition of RAF in human HCT116 cells xenografted in NCR mouse assessed as inhibition of DUSP6 gene expression in presence of Cobi-metinib at 15 mg/kg, po qd for 4 days measured upto 8 hrs of last dose; format: functional, organism-based; settings: time 4.0 day
Mus musculus [16] = assay: In vivo inhibition of RAF in human HCT116 cells xenografted in NCR mouse assessed as inhibition of SPRY4 gene expression in presence of Cobi-metinib at 15 mg/kg, po qd for 4 days measured upto 8 hrs of last dose; format: functional, organism-based; settings: time 4.0 day
Mus musculus [17] = assay: In vivo inhibition of RAF in human HCT116 cells xenografted in NCR mouse assessed as inhibition of pRSK gene expression in presence of Cobi-metinib at 15 mg/kg, po qd for 4 days measured upto 8 hrs of last dose; format: functional, organism-based; settings: time 4.0 day
Mus musculus [18] = assay: In vivo inhibition of RAF in human HCT116 cells xenografted in NCR mouse assessed as inhibition of pRSK gene expression in presence of Cobi-metinib at 15 mg/kg, po qd for 4 days measured at 24 hrs of last dose; format: functional, organism-based; settings: time 4.0 day
Mus musculus [19] = assay: In vivo inhibition of RAF in human HCT116 cells xenografted in NCR mouse assessed as inhibition of DUSP6 gene expression in presence of Cobi-metinib at 15 mg/kg, po qd for 4 days measured at 24 hrs of last dose; format: functional, organism-based; settings: time 4.0 day
Mus musculus [20] = assay: In vivo inhibition of RAF in human HCT116 cells xenografted in NCR mouse assessed as inhibition of SPRY4 gene expression in presence of Cobi-metinib at 15 mg/kg, po qd for 4 days measured at 24 hrs of last dose; format: functional, organism-based; settings: time 4.0 day

Sequence of RAF proto-oncogene serine/threonine-protein kinase (P04049 whole entry Y340D/Y341D): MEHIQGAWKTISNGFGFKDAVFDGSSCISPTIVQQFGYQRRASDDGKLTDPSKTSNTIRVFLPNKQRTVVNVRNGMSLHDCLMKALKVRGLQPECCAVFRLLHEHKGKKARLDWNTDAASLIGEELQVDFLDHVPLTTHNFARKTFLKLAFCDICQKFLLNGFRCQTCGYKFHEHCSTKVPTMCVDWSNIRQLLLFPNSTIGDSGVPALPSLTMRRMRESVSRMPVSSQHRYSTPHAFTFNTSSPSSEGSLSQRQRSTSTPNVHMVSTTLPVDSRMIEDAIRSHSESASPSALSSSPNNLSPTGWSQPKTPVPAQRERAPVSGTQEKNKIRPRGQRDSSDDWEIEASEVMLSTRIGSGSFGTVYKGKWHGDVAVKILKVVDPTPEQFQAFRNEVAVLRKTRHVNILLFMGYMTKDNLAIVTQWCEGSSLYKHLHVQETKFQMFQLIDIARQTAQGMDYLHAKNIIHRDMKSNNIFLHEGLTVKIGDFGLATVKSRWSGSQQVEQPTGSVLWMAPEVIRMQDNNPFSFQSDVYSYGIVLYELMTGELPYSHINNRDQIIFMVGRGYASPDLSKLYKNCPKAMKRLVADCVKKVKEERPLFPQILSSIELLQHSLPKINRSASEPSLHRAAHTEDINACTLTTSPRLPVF
Sequence of Serine/threonine-protein kinase B-raf (P15056 whole entry): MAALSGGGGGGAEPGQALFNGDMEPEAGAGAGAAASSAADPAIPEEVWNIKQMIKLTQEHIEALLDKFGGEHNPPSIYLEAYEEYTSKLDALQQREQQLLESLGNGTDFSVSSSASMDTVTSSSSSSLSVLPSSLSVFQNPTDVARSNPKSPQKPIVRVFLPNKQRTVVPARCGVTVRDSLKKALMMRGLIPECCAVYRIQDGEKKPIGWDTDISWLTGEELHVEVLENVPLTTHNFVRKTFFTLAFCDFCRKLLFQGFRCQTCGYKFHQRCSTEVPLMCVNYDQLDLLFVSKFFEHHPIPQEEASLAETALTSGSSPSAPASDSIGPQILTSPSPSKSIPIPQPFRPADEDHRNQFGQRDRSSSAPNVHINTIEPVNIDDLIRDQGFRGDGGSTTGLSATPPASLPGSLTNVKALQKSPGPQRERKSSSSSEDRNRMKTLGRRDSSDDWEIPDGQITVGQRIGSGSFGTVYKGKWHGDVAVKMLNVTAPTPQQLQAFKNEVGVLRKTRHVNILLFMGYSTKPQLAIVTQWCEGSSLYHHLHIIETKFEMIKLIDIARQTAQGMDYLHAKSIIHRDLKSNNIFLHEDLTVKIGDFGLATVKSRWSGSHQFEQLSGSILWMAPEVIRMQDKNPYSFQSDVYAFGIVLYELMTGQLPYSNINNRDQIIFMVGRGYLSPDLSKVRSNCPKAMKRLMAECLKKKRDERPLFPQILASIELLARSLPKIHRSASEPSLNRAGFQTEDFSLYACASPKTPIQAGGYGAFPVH

SMILES | Ki [1] [nM] | Ki [2] [nM] | IC50 (A549 [3]) [nM] | IC50 (A549 [4]) [nM] | Papp A→B [5] [×10⁻⁶ cm/s] | efflux ratio [6] | IC50 (A-375) [nM] | other results
Cc1cc(F)c(NC(=O)c2cccc(C(C)(C)C#N)c2)cc1-c1ccc2c(=O)n(C)ncc2c1 | < 0.08 | < 0.05 | 1360 | 138 | 7.8 | 1 |  | 
Cc1cc(F)c(NC(=O)NCCC(C)(C)C)cc1Nc1ccc2ncn(C)c(=O)c2c1F | < 0.08 |  | 2900 | 2900 |  |  |  | 
CNc1ncc2cc(-c3cc(NC(=O)NCCC(C)(C)C)c(F)cc3C)c(=O)n(C)c2n1 | 0.102 | 0.081 | 337 | 39.2 |  |  | 32.2 | 
Cc1cc(F)c(C(=O)NCCCC(C)(C)C)cc1-c1ccc2c(=O)n(C)ncc2c1 | 0.12 | 0.06 | 7730 | 1120 | 8.1 | 0.74 |  | 
CNc1ncc2cc(-c3cc(NC(=O)NCCC(C)(C)C)c(F)cc3C)c(C)nc2n1 [LY-3009120] |  |  | 545 | 45.6 |  |  | 28.3 | 
O=C(c1ccc(F)c(F)c1Nc1ccc(I)cc1F)N1CC(O)([C@@H]2CCCCN2)C1 |  |  |  |  |  |  |  | inhibition (Mus musculus [7]): Active; inhibition (Mus musculus [8]): Active
Cc1cc(F)c(NC(=O)NCCC(C)(C)C)cc1-c1ccc2c(=O)n(C)ncc2c1 | < 0.08 | < 0.05 | 1590 | 187 | 8.7 | 0.5 | 210 | clearance [9]: 22 mL/min/kg; Vd [10]: 2.1 L/kg; bioavailability [11]: 2%; half-life [12]: 1.3 h
Cc1cc(F)c(NC(=O)c2cccc(C(C)(C)C#N)c2)cc1-c1cnc2c(=O)n(C)ncc2c1 | 0.19 | 0.062 | 5470 | 369 | 14 | 0.86 |  | clearance [9]: 17 mL/min/kg; Vd [10]: 1.7 L/kg; bioavailability [11]: 37%; half-life [12]: 1.9 h; inhibition (Mus musculus [13]): Active; inhibition (Mus musculus [14]): Active; inhibition (Mus musculus [15]): Active; inhibition (Mus musculus [16]): Active; inhibition (Mus musculus [17]): Active; inhibition (Mus musculus [18]): inactive; inhibition (Mus musculus [19]): inactive; inhibition (Mus musculus [20]): inactive
Cc1cc(F)c(NC(=O)NCCC(C)(C)C)cc1-c1ccc2cc(N)ncc2c1 | < 0.08 | < 0.05 | 668 | 148 |  |  | 224 | 
